Source: patent US10188747B2, “Methods and compositions for the treatment of cancer” (THE GENERAL HOSPITAL CORPORATION, priority 2014, dated 2019)

Experiments:
HKCs [1] = test: Treatment of differentiating HKCs with ER ligands, RT-qPCR and immunoblot analysis; assay type: cell-based, human; conditions: differentiating HKCs (100% confluence), 72 hours; 10 nM E2, 100 nM DPN, 100 nM PPT, 10 nM fulvestrant vs DMSO
From the text: (§1) FIG. 10B depicts graphs of expression of CYP1B1 determined by RT-qPCR in lung and keratinocyte-derived SCC cell lines in parallel with HBECs and HKCs, respectively. […] Data are presented as mean fold change of fluorescence intensity±SD (*P<0.05). FIG. 10D depicts graphs of indicated SCC cells plated in duplicate on Matrigel precoated chambers with spheroid number quantification 10 days later by ImageJ™ analysis of whole-cell images. Data are duplicates±SD (*P<0.05).
(§2) Besides estrogen, other agonists have been developed with elevated specificity for either the ERα or ERß receptors (43).
(§3) Conditions for RT-qPCR, immunoblotting, immunofluorescence and ChIP assays were as previously reported (9, 42). For immunoblotting, unless otherwise indicated, cells were lysed in SDS sample buffer (50 mM Tris-HCl pH 6.8, 2% SDS, 10% glycerol, 0.2 unit nuclease) and protein separation was done in 15-well 4-12% NuPAGE Bis-Tris polyacrylamide gels (Invitrogen). Equal loading controls were done by re-probing the same immunoblots unless otherwise indicated. All assays were done at least twice, with two HKC strains or epidermal samples of independent origin.

HKCs [2] = test: DAPT treatment of HKCs infected with Dlx5- and ERβ-expressing retroviruses, RT-qPCR; assay type: cell-based, human; conditions: DAPT 10 μM, added 24 hours after infection, analysis 48 hours later
Method: HKCs under differentiating conditions (100% confluence for 3 days: 100% cf+3D) were analyzed in parallel as point of reference. […] FIG. 5B depicts graphs of HKCs with or without infection with EGR3-, DLX5-, and ERβ-expressing retroviruses as in the previous panel were treated with DAPT (10 μM) or DMSO control at 24 hours after infection followed, 48 hours later, by RT-qPCR analysis of involucrin gene expression, with 36β4 for normalization. As an alternative, HKCs stably infected with a shRNA lentivirus against NOTCH1 or empty vector control were superinfected with the EGR3, DLX5, and ERβ expressing retroviruses, followed 72 hours later by RT-qPCR analysis of the same genes. FIG. 5C depicts graphs of HKCs with or without infection with EGR3-, DLX5-, and ERβ-expressing retroviruses as in FIG. 5A were analyzed, 72 hours after infection, by RT-qPCR of the indicated genes. *P<0.001.
as §3, with “All assays were done at least twice, with two HKC strains or epidermal samples of independent origin.” left out

[3] = system: SCC13 (skin), SW900 (lung), and SCCO13 (oral) SCC cells; test: DAPT treatment of SCC cells infected with ERβ-expressing viral vectors, RT-qPCR; assay type: cell-based, human; conditions: DAPT 10 μM, added 24 hours after infection, analysis 72 hours later; involucrin and keratin 10
Method: FIG. 9A depicts results of SCC cell lines infected with ERβ-expressing viral vectors versus controls as in FIGS. 8A-8E were analyzed for expression of the indicated proteins by immunoblotting. FIG. 9B depicts graphs of SCC13 (skin), SW900 (lung), and SCCO13 (oral) SCC cells infected with ERβ-expressing and control viral vectors were treated 24 hours after infection with DAPT (10 μM) or DMSO control followed, 72 hours later, by RT-qPCR analysis of involucrin and keratin 10 differentiation marker expression. *P<0.05.
To directly assess the impact of increased ERß signaling in SCC outgrowth, a panel of skin, oral and lung SCC cell lines were infected with ERß expressing versus control viruses. […] To test the in vivo impact of increased ERß expression, representative cell lines from skin (SCC13), head/neck (SCCO13) and lung SCCs (H2170) were assessed by intra-dermal tumorigenicity assays in immune compromised mice (42). Cells infected with the ERß expressing lentivirus formed tumors of similar size as the controls, but enhanced Notch1 expression and differentiation (FIGS. 9C-9D).
Conditions for RT-qPCR, immunoblotting, immunofluorescence and ChIP assays were as previously reported (9, 42). […]

SCC cell lines = test: Treatment of a panel of SCC cell lines with DPN, Notch1 and differentiation marker expression; assay type: cell-based, human
From the text: as §1, §2, §3

SCC cells = test: Alamar blue cell density assays of SCC cells; assay type: cell-based, human; conditions: Alamar blue density assay, vs DMSO, refreshed every other day
From the text: as §1
Clonogenicity and Alamar Blue assays were as reported (60). For spheroid assays, 8-well chamber slides were coated with matrigel (BDbiosciences, CA; 50 μl per well) and incubated at 37° C. for 20 minutes to allow matrigel to polymerize. SCC cells were brought into suspension in normal culture medium plus 1% matrigel (7000 cells/ml) and added in triplicates to the pre-coated chamber slides (300 μl of cell mixture per well). Medium was refreshed every other day. For organotypic cultures, HKCs were infected with shRNA expressing lentiviruses followed, 48 hours later, by selection for puromycin ([…]) resistance. Selected keratinocyte cultures were reseeded onto collagen gels with embedded J2-3T3 fibroblasts and cultured at the air-liquid interface as previously described (61). […]

[4] = system: skin, oral, and lung SCC cells; test: Spheroid formation assays of SCC cells in Matrigel; assay type: cell-based, human; conditions: spheroid number 10 days later, vs DMSO
From the text: as §1
In vitro and animal model assays are provided herein which allow the assessment of a given dose of an agonist as described herein. By way of non-limiting example, the effects of a dose of an agonist can be assessed by spheroid assay. A non-limiting example of a protocol for such an assay is as follows: 8-well chamber slides are coated with matrigel (BDbiosciences, CA; 50 μl per well) and incubated at 37° C. for 20 minutes to allow matrigel to polymerize. SCC cells are brought into suspension in normal culture medium plus 1% matrigel (7000 cells/ml) and added in triplicates to the pre-coated chamber slides (300 μl of cell mixture per well). Medium is refreshed every other day. An agonist is added to the medium and cell growth and proliferation measured over time, e.g. by microscopy.
Clonogenicity and Alamar Blue assays were as reported (60). […]

SCCO13 cells = test: Intradermal tumorigenicity assay, ERß agonist study; assay type: in vivo, NOD/SCID mice
Method: SCC013 cells were injected intradermally in the left supra-scapular region of NOD/SCID mice (1×10^6 cells per injection). […] Animals were sacrificed 10 days later. Tumor weight and volume were measured, followed by determination of Ki67-labeling index by immunofluorescence analysis of histological section. *P<0.05.
Lenti-virally-infected SCC13, SCCO13 cells and retro-virally infected H2170 cells were suspended in matrigel followed by intra-dermal injection (1.0×10^6 cells in 150 μl per injection) into the back skin of 6 weeks old NOD/SCID mice (Taconic Farms Inc. Germantown, N.Y.) as described (9, 42). To minimize the individual animal variations, cells infected with control and ERß expressing viruses were injected in parallel in the right and left flank of the same mice. Mice were sacrificed for tissue analysis 3 weeks (SCC13 and SCCO13) or 1 week (H2170) after injection. For ERß agonist studies, SCCO13 cells were injected intra-dermally into NOD/SCID mice as described above.

[5] = SCCO13 tumors, 20 mg/kg daily, data not shown

## C[C@]12CC[C@@H]3c4ccc(O)cc4CC[C@H]3[C@@H]1CC[C@@H]2O [17β-estradiol]
HKCs [1]
  Notch1 expression: induction
  differentiation marker expression: induction

## C[C@H](NC(=O)Cc1cc(F)cc(F)c1)C(=O)N[C@H](C(=O)OC(C)(C)C)c1ccccc1 [DAPT]
HKCs [2]
  induction of Hey1 and involucrin by enhanced expression of Dlx5 and ERβ: prevented to a large extent
[3]
  induction of differentiation marker expression by increased ERß expression: significantly counteracted

## N#CC(Cc1ccc(O)cc1)c1ccc(O)cc1 (centres unmarked) [DPN, 2,3-bis(4-Hydroxyphenyl)-propionitrile]
HKCs [1]
  Notch1 expression: induction
  differentiation marker expression: induction
SCC cell lines
  Notch1 expression: induction
  differentiation marker expression: induction
SCC cells
  proliferation of SCC cell lines: significantly suppressed
[4]
  sphere forming capability of SCC cell lines: significantly suppressed
SCCO13 cells; SCCO13 cells intradermally, 20 mg/kg intraperitoneally daily for 10 days, vs DMSO vehicle
  tumor size: significantly smaller size
SCCO13 cells; [5]
  Notch1 expression in tumors: increased
  differentiation marker expression in tumors: increased

## C[C@]12CC[C@@H]3c4ccc(O)cc4C[C@@H](CCCCCCCCC[S+]([O-])CCCC(F)(F)C(F)(F)F)[C@H]3[C@@H]1CC[C@@H]2O (some centres unmarked) [Fulvestrant]
HKCs [1]
  Notch1 expression: suppressed
  differentiation marker expression: suppressed

## CCCc1c(-c2ccc(O)cc2)nn(-c2ccc(O)cc2)c1-c1ccc(O)cc1 [PPT, 1,3,5-Tris(4-hydroxyphenyl)-4-propyl-1H-pyrazole]
HKCs [1]
  Notch1 expression: Little or no induction
  differentiation marker expression: Little or no induction
